# In article PMC4216217 (Journal of Medicinal Chemistry, 2014):
# Where two headings read alike, the source gives them in different places.
# Legend:
# [1] = molecular target: rat D2-like receptors (Rattus norvegicus, UniProt P61169); experiment: biochemical; assay type: binding
# [2] = molecular target: rat D3 dopamine receptors (Rattus norvegicus, UniProt P19020); experiment: biochemical; assay type: binding
# [3] = molecular target: human D3 receptor (Homo sapiens, UniProt P35462); experiment: cell-based; assay type: cell-based
# human D3 receptor, sequence (P35462 whole entry): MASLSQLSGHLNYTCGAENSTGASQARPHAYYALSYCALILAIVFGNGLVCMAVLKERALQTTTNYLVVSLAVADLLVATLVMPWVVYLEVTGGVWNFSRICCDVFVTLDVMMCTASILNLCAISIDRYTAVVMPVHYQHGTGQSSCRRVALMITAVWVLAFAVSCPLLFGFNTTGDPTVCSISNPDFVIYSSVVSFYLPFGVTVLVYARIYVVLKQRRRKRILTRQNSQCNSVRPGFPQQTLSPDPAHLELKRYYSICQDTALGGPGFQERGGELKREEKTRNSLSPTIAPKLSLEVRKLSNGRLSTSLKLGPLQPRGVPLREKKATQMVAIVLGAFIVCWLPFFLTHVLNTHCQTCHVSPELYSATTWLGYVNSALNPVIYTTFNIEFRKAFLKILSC
# rat D3 dopamine receptors, sequence (P19020 whole entry): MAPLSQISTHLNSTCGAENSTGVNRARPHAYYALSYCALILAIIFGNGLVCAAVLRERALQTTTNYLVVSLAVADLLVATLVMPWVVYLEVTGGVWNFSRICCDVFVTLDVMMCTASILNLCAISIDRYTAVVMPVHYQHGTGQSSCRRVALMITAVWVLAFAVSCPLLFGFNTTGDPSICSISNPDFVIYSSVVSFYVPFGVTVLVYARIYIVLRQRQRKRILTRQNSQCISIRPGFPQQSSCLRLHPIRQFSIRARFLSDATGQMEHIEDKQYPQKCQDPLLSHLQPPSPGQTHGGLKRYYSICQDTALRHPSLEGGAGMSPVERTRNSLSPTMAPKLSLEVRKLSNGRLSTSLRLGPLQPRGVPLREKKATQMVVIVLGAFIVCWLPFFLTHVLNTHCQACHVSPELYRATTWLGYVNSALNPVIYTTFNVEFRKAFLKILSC
# rat D2-like receptors, sequence (P61169 1-415 isoform P61169-2): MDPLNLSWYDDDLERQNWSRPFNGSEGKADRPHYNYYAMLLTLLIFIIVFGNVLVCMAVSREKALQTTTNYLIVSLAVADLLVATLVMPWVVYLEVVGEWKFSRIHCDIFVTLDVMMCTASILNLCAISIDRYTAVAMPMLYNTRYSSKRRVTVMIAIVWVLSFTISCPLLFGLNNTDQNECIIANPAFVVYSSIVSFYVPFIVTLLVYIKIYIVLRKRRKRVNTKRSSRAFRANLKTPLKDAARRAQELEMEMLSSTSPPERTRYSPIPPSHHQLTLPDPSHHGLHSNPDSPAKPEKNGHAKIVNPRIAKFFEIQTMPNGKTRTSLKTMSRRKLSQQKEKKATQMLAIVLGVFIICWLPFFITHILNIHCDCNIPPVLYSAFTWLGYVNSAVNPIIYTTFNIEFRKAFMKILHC
smiles,measurement,setting,value
"CCCN(CC[C@]1(O)C[C@@H](NC(=O)c2ccc3ccccc3c2)C1)C1CC1c1ccc(Cl)cc1 (relative stereo) [(±)-11, N-(cis-3-(2-((((±)-trans)-2-(4-Chlorophenyl)cyclopropyl)(propyl)-amino)ethyl)-3-hydroxycyclobutyl)-2-naphthamide]",Ki,[1],> 100000 nM
same,binding to the rat D2 receptor,[1],neither compound showing measurable binding
"CCCN(CC[C@]1(O)C[C@@H](NC(=O)c2ccc3ccccc3c2)C1)[C@H]1C[C@@H]1c1ccccc1Cl (relative stereo) [(±)-12, N-(cis-3-(2-((((±)-trans)-2-(2-Chlorophenyl)cyclopropyl)(propyl)-amino)ethyl)-3-hydroxycyclobutyl)-2-naphthamide]",Ki,[1],503 ± 63 nM
"CCCN(CC[C@]1(O)C[C@@H](NC(=O)c2ccc3ccccc3c2)C1)[C@H]1C[C@@H]1c1cccc(Cl)c1 (relative stereo) [(±)-13, N-(cis-3-(2-((((±)-trans)-2-(3-Chlorophenyl)cyclopropyl)(propyl)-amino)ethyl)-3-hydroxycyclobutyl)-2-naphthamide]",selectivity D3/D2,[2],>29000
same,selectivity for rat D3 receptor over rat D2 receptor,[2],> 10000
same,Ki,"[2]; Ki ± SEM, D3",26 nM
same,binding to the rat D2 receptor,[1]; at 100 μM,neither compound showing measurable binding
"CCCN[C@@H]1C[C@H]1c1ccccc1 [(1R,2S)-9, (1R,2S)-2-Phenyl-N-propylcyclopropanamine]",selectivity for rat D3 receptor over rat D2 receptor,[2],approximately 80 fold
"CCCN(CC[C@]1(O)C[C@@H](NC(=O)c2ccc3ccccc3c2)C1)[C@@H]1C[C@H]1c1ccccc1 [(1R,2S)-10, N-(cis-3-Hydroxy-3-(2-(((1R,2S)-2-phenylcyclopropyl)(propyl)amino)-ethyl)cyclobutyl)-2-naphthamide]",selectivity for rat D3 receptor over rat D2 receptor,[2],20–30 fold
"CCCN(CC[C@]1(O)C[C@@H](NC(=O)c2ccc3ccccc3c2)C1)[C@@H]1C[C@H]1c1ccc(Cl)cc1 [(1R,2S)-11, N-(cis-3-(2-(((1R,2S)-2-(4-Chlorophenyl)cyclopropyl)(propyl)-amino)ethyl)-3-hydroxycyclobutyl)-2-naphthamide]",binding to the rat D2 receptor,[1],no appreciable binding
same,EC50,[3],> 100000 nM
same,slope of the Schild plot,[3]; D3 activity stimulated by pramipexole,−0.83
same,EC50,"[3]; read-out: agonist activity ED50, β-arrestin binding to human D3, U2OS",> 100000 nM
same,agonist activity,"[3]; β-arrestin binding to human D3, in words",no agonist activity
"CCCN[C@H]1C[C@@H]1c1ccccc1 [(1S,2R)-9, (1S,2R)-2-Phenyl-N-propylcyclopropanamine]",selectivity for rat D3 receptor over rat D2 receptor,[2],approximately 80 fold
"CCCN(CC[C@]1(O)C[C@@H](NC(=O)c2ccc3ccccc3c2)C1)[C@H]1C[C@@H]1c1ccccc1 [(1S,2R)-10, N-(cis-3-Hydroxy-3-(2-(((1S,2R)-2-phenylcyclopropyl)(propyl)-amino)ethyl)cyclobutyl)-2-naphthamide]",selectivity for rat D3 receptor over rat D2 receptor,[2],20–30 fold
